The record followed here is ChEMBL document CHEMBL5608141, “Identification of compartment-specific drug sensitivities in CRC organoid-stroma co-cultures” (2024).

What all share (assay type): functional, Homo sapiens
Set-up in all cases: dose or concentration left out as unconfirmed

In experiment [1] the test system is Colon cancer organoid. Nature of the experiment: Identification of compartment-specific drug sensitivities in O06 CRC organoid-stroma F06 CAF co-cultures. Organoid is transduced with Lucferase2-P2A-EGFP lentivirus, fibroblast with Renilla-dsRed lentivirus. Dual-Glo Luciferase assay is used to report viability data.
The subject of experiment [2] is Colon cancer organoid. Put plainly: Identification of compartment-specific drug sensitivities in O14 CRC organoid-stroma F14 CAF co-cultures. Organoid is transduced with Lucferase2-P2A-EGFP lentivirus, fibroblast with Renilla-dsRed lentivirus. Dual-Glo Luciferase assay is used to report viability data.
The test system of experiment [3] is Colon cancer organoid. Nature of the experiment: Identification of compartment-specific drug sensitivities in O20 CRC organoid-stroma F20 CAF co-cultures. Organoid is transduced with Lucferase2-P2A-EGFP lentivirus, fibroblast with Renilla-dsRed lentivirus. Dual-Glo Luciferase assay is used to report viability data.
Setting [4] is: Transduced with Lucferase2-P2A-EGFP lentivirus.
The mark [5] stands for this setting: Transduced with Renilla-dsRed lentivirus.

`COc1cccc2c1c(O)c(C(=O)N(C)c1ccc(C(F)(F)F)cc1)c(=O)n2C` [TASQUINIMOD]: the “Cell Viability” value in the experiment with Colon cancer organoid [1] (setting [4]) is listed as 78.5663%; with Colon cancer organoid [1] (setting [5]), 130.265%; in the experiment with Colon cancer organoid [2] (setting [4]), 112.754%; in the experiment with Colon cancer organoid [2] (setting [5]), 82.8858%; in the experiment with Colon cancer organoid [3] (setting [4]) it was 64.5374%; in the experiment with Colon cancer organoid [3] (setting [5]), 99.9703%.
As for `CNC(=O)c1cc(C(=O)N[C@H]2[C@@H]3COC[C@@H]32)cc2c1O[C@@H](CF)[C@@H]2c1ccccc1` [GSK943], the “Cell Viability” value in the experiment with Colon cancer organoid [1] (setting [4]) is listed as 83.6271%; in the experiment on Colon cancer organoid [1] (setting [5]), 130.888%; in the experiment on Colon cancer organoid [2] (setting [4]), 96.5907%; in the experiment on Colon cancer organoid [2] (setting [5]), 102.587%; in the experiment on Colon cancer organoid [3] (setting [4]) it was 107.286%; in the experiment on Colon cancer organoid [3] (setting [5]), 108.354%.
For the compound `CCn1c(-c2nc3cc(C(=O)N4CCCC(N)C4)ccc3n2C)cc2ccccc21.Cl` (stereo not given), the “Cell Viability” value in the experiment on Colon cancer organoid [1] (setting [4]) is on record as 115.054%; in the experiment with Colon cancer organoid [1] (setting [5]), 117.733%; in the experiment on Colon cancer organoid [2] (setting [4]), 132.628%; in the experiment with Colon cancer organoid [2] (setting [5]) it was 112.241%; in the experiment on Colon cancer organoid [3] (setting [4]) it was 133.825%; in the experiment on Colon cancer organoid [3] (setting [5]), 136.72%.
Take `CC(C)[C@H](C(=O)Nc1ccc(C(=O)NO)cc1)c1ccccc1` [AR-42]: the “Cell Viability” value in the experiment on Colon cancer organoid [1] (setting [4]) amounted to 8.004%; in the experiment on Colon cancer organoid [1] (setting [5]), 640.047%; in the experiment on Colon cancer organoid [2] (setting [4]), 24.8523%; in the experiment with Colon cancer organoid [2] (setting [5]) it was 220.952%; in the experiment with Colon cancer organoid [3] (setting [4]), 13.9942%; in the experiment with Colon cancer organoid [3] (setting [5]) it was 352.85%.
For the compound `CO[C@H]1CC[C@H](CNc2ccc(S(=O)(=O)NC(=O)c3ccc(N4CCN(CC5=C(c6ccc(Cl)cc6)CC(C)(C)CC5)CC4)cc3Oc3cnc4[nH]ccc4c3)cc2[N+](=O)[O-])CC1` [A-1211212], the “Cell Viability” value is listed as 8.693% in the experiment on Colon cancer organoid [1] (setting [4]); 108.861% in the experiment on Colon cancer organoid [1] (setting [5]); 54.5485% with Colon cancer organoid [2] (setting [4]); 97.9178% in the experiment with Colon cancer organoid [2] (setting [5]); 16.4932% with Colon cancer organoid [3] (setting [4]); 159.244% in the experiment on Colon cancer organoid [3] (setting [5]).
With `CCc1cc2cc(NS(=O)(=O)c3ccc(C#N)cc3)ccc2n(CC)c1=O`, the “Cell Viability” value is reported as 88.2132% in the experiment with Colon cancer organoid [1] (setting [4]); 102.933% with Colon cancer organoid [1] (setting [5]); 120.494% in the experiment with Colon cancer organoid [2] (setting [4]); 98.1699% in the experiment with Colon cancer organoid [2] (setting [5]); 196.577% in the experiment with Colon cancer organoid [3] (setting [4]); 99.0217% in the experiment on Colon cancer organoid [3] (setting [5]).
As for `Cc1nc(C2CCN(C(=O)c3ccc(OC(F)(F)F)cc3N)CC2)c2ncc(N3CCN(C)CC3)cc2n1` [BAY-693], the “Cell Viability” value in the experiment on Colon cancer organoid [1] (setting [4]) is listed as 114.208%; with Colon cancer organoid [1] (setting [5]) it was 166.908%; with Colon cancer organoid [2] (setting [4]) it was 77.0919%; with Colon cancer organoid [2] (setting [5]) it was 74.1942%; with Colon cancer organoid [3] (setting [4]), 93.6142%; in the experiment with Colon cancer organoid [3] (setting [5]) it was 129.276%.
In the case of `CC(=O)C1=C(C)N(c2cccc(C(F)(F)F)c2)C(=O)N[C@H]1c1ccc(C#N)nc1` [BAY-677], the “Cell Viability” value with Colon cancer organoid [1] (setting [4]) worked out at 73.3465%; with Colon cancer organoid [1] (setting [5]) it was 89.4043%; in the experiment on Colon cancer organoid [2] (setting [4]) it was 123.312%; in the experiment on Colon cancer organoid [2] (setting [5]), 108.035%; in the experiment with Colon cancer organoid [3] (setting [4]), 134.265%; with Colon cancer organoid [3] (setting [5]), 107.791%.
In the case of `COCCc1ccc(-c2c(C)nc3c(N4CCOCC4)ccnn23)cn1` [JNJ-42396302], the “Cell Viability” value in the experiment with Colon cancer organoid [1] (setting [4]) turned out to be 121.378%; in the experiment with Colon cancer organoid [1] (setting [5]), 128.188%; with Colon cancer organoid [2] (setting [4]) it was 94.533%; in the experiment on Colon cancer organoid [2] (setting [5]), 84.3411%; in the experiment on Colon cancer organoid [3] (setting [4]) it was 126.017%; in the experiment with Colon cancer organoid [3] (setting [5]) it was 102.271%.
As to `COc1cc(-c2cn(C)c(=O)c3cnccc23)c(OC)cc1CN(C)C`, the “Cell Viability” value in the experiment on Colon cancer organoid [1] (setting [4]) was 79.252%; in the experiment on Colon cancer organoid [1] (setting [5]), 108.934%; in the experiment with Colon cancer organoid [2] (setting [4]), 100.672%; in the experiment with Colon cancer organoid [2] (setting [5]), 88.7606%; with Colon cancer organoid [3] (setting [4]), 61.6023%; in the experiment on Colon cancer organoid [3] (setting [5]) it was 139.676%.
